Measurements: patent US20250152591A1, “TREATMENT OF HEMATOLOGICAL MALIGNANCIES WITH MENIN INHIBITORS AND P-GLYCOPROTEIN INHIBITORS” (Kura Oncology, Inc., priority 2022, published 2025)
Where two headings read alike, the source gives them in different places.

Assays:
[1] = system: MV4;11-Control cell line; assay: CellTiter-Glo cell viability assay, MV4;11-Control; assay type: cell-based; set-up: unit of the concentration uncertain
Description: (§1) The influence of efflux pumps on the antitumor activity of the test compounds at steady state (more clinically relevant) were evaluated using P-gp-transfected AML cells (MV4;11 cells) in 6-day viability assays.
(§2) A P-gp-expressing KMT2A(MLL)-rearranged cell line model was developed by lentiviral transduction of the MV4;11 parental cell line and then selection for either Luciferase ORF (MV4;11-Control) or P-gp ORF (MV4;11-PGP).
(§3) […] Cell viability was measured by CellTiter-Glo® Luminescent Cell Viability Assay (CTG assay, Promega Corp.) and % Viability was quantified by normalizing to the luminescence values of DMSO-only treated cells. The dose-response curves and IC50's were calculated using GraphPad Prism 9.4.1.
(§4) The measured luminescence in the live cells of the MV4;11-Control and MV4;11-PGP cells that were treated with Compound I only (+DMSO), Compound I+posaconazole […], and valspodar (1 mM) are shown in FIGS. 5A and 5B.
(§5) In a second set of experiments, MV4;11-Control and MV4;11-PGP cell lines were treated as described above with five menin inhibitors, including Compound I, SNDX-5613, Compound A, Compound B, and Compound C, at concentrations ranging from 0 to 1000 nM. All tested compounds dropped in potency due to the P-gp expression as shown in FIGS. 6A-6J and in Tables 5 and 6 (indicated by increased IC50 values between “MV4;11-Control (Compound+DMSO)” and “MV4;11-PGP (Compound+DMSO)” entries).

[2] = system: MV4;11-PGP cell line; assay: CellTiter-Glo cell viability assay, MV4;11-PGP; assay type: cell-based; set-up: unit of the concentration uncertain
Description: as §1, §2, §3, §4, §5

[3] = system: MOLM13-PGP cell line; assay: Cell viability assay, MOLM13-PGP; assay type: cell-based; set-up: unit of the concentration uncertain; settings: 168 h, 7 days
Description: The effects described above were investigated in an AML cell line, MOLM-13, which carries a KA4T2A (MLL)-rearrangement mutation. The P-gp expressing MOLM-13 cell line (MOLM13-PGP) and the Luciferase expressing MOLM-13 cell line (MOLM13-Control) were established by lentivirally transducing P-gp ORF or Luciferase ORF. Cells were plated and treated with test compound for 7 days.

[4] = target: P-gp (Homo sapiens, UniProt P08183); assay: P-gp substrate assessment using MDR1-MDCK monolayers (Example 1, +/- valspodar); assay type: in vitro ADME; set-up: expressed in transfected cells; host or cells: MDR1-MDCK cells
Description: MDR1-MDCK cell monolayers were grown to confluence on collagen-coated, microporous membranes in 12-well assay plates. Details of the plates and their certification are shown below. The permeability assay buffer was Hanks' balanced salt solution (HBSS) containing 10 mM HEPES and 15 mM glucose at a pH of 7.4. The buffer in the receiver chamber also contained 1% bovine serum albumin. The dosing solution concentration was 5 μM of test article in the assay buffer+/−1 μM valspodar. Cells were first pre-incubated for 30 min with HBSS containing+/−1 μM valspodar. Cell monolayers were dosed on the apical side (A-to-B) or basolateral side (B-to-A) and incubated at 37° C. with 5% CO2 in a humidified incubator. Samples were taken from the donor and receiver chambers at 120 min. Each determination was performed in duplicate. The flux of lucifer yellow was also measured post-experimentally for each monolayer to ensure no damage was inflicted to the cell monolayers during the flux period. All samples were assayed by LC-MS/MS using electrospray ionization. Liquid chromatography conditions are summarized as follows: Column: Thermo BDS Hypersil C18 30×2.1 mm, […], with guard column; M.P. Buffer: 25 mM ammonium formate buffer, pH 3.5; Aqueous Reservoir (A): 90% water, 10% buffer; Organic Reservoir (B): 90% acetonitrile, 10% buffer; Flow Rate: 350 μL/minute; Total run time: 3.5 min; Autosampler: 10 μL injection volume; Autosampler wash: water/methanol/2-propanol: 1/1/1; with 0.2% formic acid.
The apparent permeability (Papp) and percent recovery were calculated as follows: […]
where, • dCr/dt is the slope of the cumulative concentration in the receiver compartment versus time in μM s^−1; • Vr is the volume of the receiver compartment in cm^3; • Vd is the volume of the donor compartment in cm^3; • A is the area of the insert (1.13 cm^2 for 12-well); • CA is the average of the nominal dosing concentration and the measured 120 minute donor concentration in μM; • CN is the nominal concentration of the dosing solution in μM; • Cr^final is the cumulative receiver concentration in μM at the end of the incubation period; • Cd^final is the concentration of the donor in μM at the end of the incubation period.
Efflux ratio (ER) is defined as Papp (B-to-A)/Papp (A-to-B).
• ER≥2.0 without valspodar, and reduced by ≥50% with valspodar: Positive • ER≥2.0 without valspodar, and reduced by <50% with valspodar: Negative • ER<2.0 without and with valspodar: Negative

Chain of P-gp (P08183 whole entry): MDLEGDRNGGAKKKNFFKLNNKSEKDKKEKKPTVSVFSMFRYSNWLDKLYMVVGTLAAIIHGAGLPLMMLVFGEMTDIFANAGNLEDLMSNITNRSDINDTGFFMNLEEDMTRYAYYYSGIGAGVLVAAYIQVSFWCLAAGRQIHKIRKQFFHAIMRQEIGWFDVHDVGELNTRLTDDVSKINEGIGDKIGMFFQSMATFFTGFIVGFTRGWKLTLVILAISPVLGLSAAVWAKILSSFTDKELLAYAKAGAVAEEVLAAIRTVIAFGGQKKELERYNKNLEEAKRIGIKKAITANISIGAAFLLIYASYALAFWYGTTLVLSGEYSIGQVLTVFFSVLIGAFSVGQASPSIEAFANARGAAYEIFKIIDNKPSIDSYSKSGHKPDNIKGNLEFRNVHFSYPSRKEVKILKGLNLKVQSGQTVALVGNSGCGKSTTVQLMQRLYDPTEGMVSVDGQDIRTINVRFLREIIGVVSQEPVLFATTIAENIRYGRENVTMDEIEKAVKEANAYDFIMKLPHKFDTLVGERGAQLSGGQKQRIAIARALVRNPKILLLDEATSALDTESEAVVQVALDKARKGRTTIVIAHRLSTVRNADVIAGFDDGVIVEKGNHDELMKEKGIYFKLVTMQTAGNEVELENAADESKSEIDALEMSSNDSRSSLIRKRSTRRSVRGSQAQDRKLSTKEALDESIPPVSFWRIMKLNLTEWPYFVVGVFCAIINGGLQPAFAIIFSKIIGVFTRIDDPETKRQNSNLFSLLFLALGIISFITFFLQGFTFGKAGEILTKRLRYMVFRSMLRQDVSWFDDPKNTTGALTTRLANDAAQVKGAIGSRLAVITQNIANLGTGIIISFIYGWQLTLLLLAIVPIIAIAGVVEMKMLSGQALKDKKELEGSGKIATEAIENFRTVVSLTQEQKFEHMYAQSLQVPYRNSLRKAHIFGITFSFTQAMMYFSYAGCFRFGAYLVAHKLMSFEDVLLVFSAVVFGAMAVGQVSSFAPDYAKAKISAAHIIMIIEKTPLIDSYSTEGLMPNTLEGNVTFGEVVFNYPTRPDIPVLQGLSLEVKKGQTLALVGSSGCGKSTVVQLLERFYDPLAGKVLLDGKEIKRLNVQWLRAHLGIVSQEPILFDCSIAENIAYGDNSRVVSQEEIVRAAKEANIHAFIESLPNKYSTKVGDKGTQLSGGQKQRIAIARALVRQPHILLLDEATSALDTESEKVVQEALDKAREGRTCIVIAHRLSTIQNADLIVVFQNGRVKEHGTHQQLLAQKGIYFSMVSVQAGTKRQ

Structure (SMILES): CNc1nc(NC2CCN(Cc3ccc4c(cc(C#N)n4C[C@H](C)N4CCN(S(C)(=O)=O)CC4)c3C)CC2)c2cc(CC(F)(F)F)sc2n1 [Compound I]
- IC50 ([1]; 120 h, MV4;11-Control, 5 days, Table 4, read-out: IC50 (Compound I + DMSO)): 7.2 nM
- IC50 ([1]; 120 h, MV4;11-Control, posaconazole (1.5 μM), 5 days, Table 4, read-out: IC50 (Compound I + Posaconazole)): 3.8 nM
- IC50 ([1]; 120 h, MV4;11-Control, valspodar (1 μM), 5 days, Table 4, read-out: IC50 (Compound I + Valspodar)): 6.1 nM
- IC50 ([1]; 144 h, Compound I only, 0 to 1000 nM, 6 days, Table 3, read-out: IC50 MV4;11-Control): 7.6 nM
- IC50 ([1]; 144 h, second set of experiments, 0 to 1000 nM, Table 5, read-out: IC50 MV4;11-Control (Compound + DMSO)): 6.05 nM
- IC50 ([1]; 144 h, second set of experiments, 0 to 1000 nM, Table 6, read-out: IC50 MV4;11-Control (Compound + DMSO)): 6.14 nM
- IC50 ([1]; second set of experiments, posaconazole (1.5 (unit uncertain)), Table 5, read-out: IC50 MV4;11-Control (Compound + posaconazole)): 3.76 nM
- IC50 ([1]; second set of experiments, valspodar (1 (unit uncertain)), Table 6, read-out: IC50 MV4;11-Control (Compound + valspodar)): 4.84 nM
- IC50 ([2]; 120 h, MV4;11-PGP, 5 days, Table 4, read-out: IC50 (Compound I + DMSO)): 33 nM
- IC50 ([2]; 120 h, MV4;11-PGP, posaconazole (1.5 μM), 5 days, Table 4, read-out: IC50 (Compound I + Posaconazole)): 7.1 nM
- IC50 ([2]; 120 h, MV4;11-PGP, valspodar (1 μM), 5 days, Table 4, read-out: IC50 (Compound I + Valspodar)): 4.7 nM
- IC50 ([2]; 144 h, second set of experiments, 0 to 1000 nM, Table 5, read-out: IC50 MV4;11-PGP (Compound + DMSO)): 19.1 nM
- IC50 ([2]; 144 h, second set of experiments, 0 to 1000 nM, Table 6, read-out: IC50 MV4;11-PGP (Compound + DMSO)): 19.9 nM
- IC50 ([2]; second set of experiments, posaconazole (1.5 (unit uncertain)), Table 5, read-out: IC50 MV4;11-PGP (Compound + posaconazole)): 5.79 nM
- IC50 ([2]; second set of experiments, valspodar (1 (unit uncertain)), Table 6, read-out: IC50 MV4;11-PGP (Compound + valspodar)): 5.64 nM
- IC50 ([3]; Table 7, read-out: IC50 MOLM13-PGP (Compound + DMSO)): 65.7 nM
- IC50 ([3]; Table 8, read-out: IC50 MOLM13-PGP (Compound + DMSO)): 63.2 nM
- IC50 ([3]; posaconazole (1.5 (unit uncertain)), Table 7, read-out: IC50 MOLM13-PGP (Compound + posaconazole)): 19.2 nM
- IC50 ([3]; valspodar (1 (unit uncertain)), Table 8, read-out: IC50 MOLM13-PGP (Compound + valspodar)): 23 nM
- Papp Avg ([4]; A-to-B, without valspodar): 0.09 10^−6 cm/s
- P-gp substrate ([4]; MDR1-MDCK cell monolayers): substrate of P-gp
- P-gp Substrate Classification ([4]; MDR1-MDCK, ER without and with valspodar): Positive (ER≥2.0 without valspodar, and reduced by ≥50% with valspodar)
- recovery at 120 min, 5 μM ([4]; dog, MDCK-MDR1, pH 7.4, A-to-B, 5 μM test article, without valspodar): 70%
- recovery at 120 min, 5 μM ([4]; dog, MDCK-MDR1, pH 7.4, B-to-A, 5 μM test article, without valspodar): 83%
- Papp B→A at 120 min, 5 μM ([4]; dog, MDCK-MDR1, pH 7.4, B-to-A, without valspodar, read-out: Papp Avg): 9.41 ×10⁻⁶ cm/s
- Papp B→A at 120 min, 5 μM ([4]; dog, MDCK-MDR1, pH 7.4, B-to-A, without valspodar, read-out: Papp R1): 6.43 ×10⁻⁶ cm/s
- Papp B→A at 120 min, 5 μM ([4]; dog, MDCK-MDR1, pH 7.4, B-to-A, without valspodar, read-out: Papp R2): 9.21 ×10⁻⁶ cm/s
- Papp B→A at 120 min, 5 μM ([4]; dog, MDCK-MDR1, pH 7.4, B-to-A, without valspodar, read-out: Papp R3): 12.6 ×10⁻⁶ cm/s
- recovery at 120 min, 5 μM ([4]; dog, MDCK-MDR1, pH 7.4, with valspodar 1 μM, A-to-B, 5 μM test article + 1 μM valspodar): 53%
- recovery at 120 min, 5 μM ([4]; dog, MDCK-MDR1, pH 7.4, with valspodar 1 μM, B-to-A, 5 μM test article + 1 μM valspodar): 118%
- Papp A→B at 120 min, 5 μM ([4]; dog, MDCK-MDR1, pH 7.4, A-to-B, without valspodar): 0.09 ×10⁻⁶ cm/s
- efflux ratio at 120 min, 5 μM ([4]; dog, MDCK-MDR1, pH 7.4, Papp (B-to-A)/Papp (A-to-B), without valspodar): 105
